In assay [1] the test system is lipid peroxidation in retina homogenate. Kind of assay: Retina migration properties: ex vivo retinal lipid peroxidation production inhibition. It is filed as in vivo. Conditions: SD male rats, retina taken after 30 minutes. The protocol:
Retina migration properties of the compounds of the present invention were evaluated. To SD male rats (one group: 3 rats, 6 weeks old), a solution or suspension prepared by dissolving or suspending each of the test compounds in a 0.1N hydrochloric acid solution or a 1% poly oxy ethylene hydrogenated castor oil (NIKKOL HCO-60) solution was orally administered. After 30 minutes, both eyes were extracted and the retina was separated under ice cooling. A 5% homogenate solution of the retina was prepared in a 0.1M tris-hydrochloric acid buffer (pH 7.4) under ice cooling using a polytron homogenizer for a trace amount (NS-310E: manufactured by Nichion Irika Kiki Co., Ltd.) and, after autoxidation at 37° C. for one hour, the amount of lipid peroxidation produced was determined by a thiobarbituric acid process (MASUGI et al., vitamin 51, 21-29, 1977). A 30% inhibitory dose (ID30) was determined from the inhibition ratio at each dose. As is apparent from the results, the compounds of the present invention have an ex vivo retinal lipid peroxidation production inhibitory action and is also excellent in retina migration properties.

Assay [2] deals with abnormal behavior and fatality due to ferrous chloride. The assay can be described thus: In vivo antioxidative activity: ferrous chloride administration into spinal subarachnoid cavity of mice. More on the design: species or system Slc:ICR male mice. Conditions: score after 60 minutes. The protocol: An in vivo antioxidative activity of the compounds of the present invention was evaluated from an abnormal behavior due to administration of ferrous chloride into spinal subarachnoid cavity of mice as well as an inhibitory effect of a fatality rate according to the process described in J. Med. Chem., 1997, Vol. 40, p. 559-573. Using Slc:ICR male mice (one group: 3 to 7 mice, 5 weeks old) (available from Nippon SLC Co., Ltd.), 5 μl of a 50 mM ferrous chloride physiological saline solution was administered to the spinal canal through the space between the fifth lumbar vertebrae and the sixth lumbar vertebrae. 20 to 60 minutes after administration of ferrous chloride, symptoms were observed and a score after 60 minutes was determined from symptoms shown in Table 32. […] As is apparent from the results, the compounds of the present invention have an in vivo antioxidation action.

The test system of assay [3] is lipid peroxidation activity of each tissue homogenate (brain, heart and kidney). Kind of assay: Tissue migration properties: ex vivo lipid peroxidation inhibition in brain, heart and kidney homogenates. The settings on record: SD male rats, 100 mg/kg intraperitoneally, 30 minutes after administration. As for the experimental part:
(§1) An in vitro lipid peroxidation inhibition of the compounds of the present invention was evaluated by measuring a lipid peroxidation activity in a rat brain homogenate according to a process of Malvy, c., et al., Biochemical and Biophysical Research Communications, 1980, Vol. 95, p. 734-737. That is, a rat brain was extracted and a 5-fold amount of an aqueous phosphoric acid buffered saline solution (pH 7.4) (hereinafter abbreviated to PBS) was added to the brain under ice cooling, followed by homogenization using a Teflon homogenizer and further centrifugation at 10,000 g for 20 minutes to prepare a brain homogenate as a supernatant. To the brain homogenate thus prepared, 500 μM cysteine, 5 μM sulfuric acid monobasic iron and 100 mM KCl were added, followed by incubation at 37° C. for 30 minutes. Malondialdehyde produced by the […] of lipid peroxidation was measured by a thiobarbituric acid process.
Tissue migration properties of the compounds of the present invention were evaluated by measuring an ex vivo lipid peroxidation inhibition. A solution or suspension prepared by dissolving or suspending each of test compounds in an aqueous physiological saline solution or a 1% poly oxy ethylene hydrogenated castor oil (NIKKOL HCO-60, manufactured by Nikko Chemicals Co., Ltd.) physiological saline solution was intraperitoneally administered to SD male rats (one group: 3 rats, 6 weeks old) (available from Nippon SLC Co., Ltd.) at a dose of 100 mg/kg. 30 Minutes after administration, rats were bled to death by cutting the carotid artery and then the brain, heart and kidney were extracted. A lipid peroxidation activity of each tissue homogenate was measured by the process described in Example 18. An inhibition ratio in each tissue of the compounds of the present invention was determined from the amount of lipid peroxidation produced of a control group (physiological saline administration group) and a test compound administration group.

The test system of assay [4] is lipid peroxidation activity in a rat brain homogenate. The assay can be described thus: In vitro lipid peroxidation inhibition (rat brain homogenate, thiobarbituric acid process). Format: biochemical. Conditions: read-out: In vitro lipid peroxidation inhibition 50% inhibitory concentration (IC50 μM), 500 μM cysteine, 5 μM sulfuric acid monobasic iron, 100 mM KCl, 37° C. for 30 minutes. As for the experimental part: as §1

`Cc1c(C)c2c(c(C)c1N)CC(C)(CN1CCN(c3cccc(-n4ccnc4)c3)CC1)O2` (stereo not shown) [Compound B-1-18]: in assay [1], the “Lipid peroxidation inhibition 30% inhibitory concentration (ID30, oral administration) in ex vivo retina” value was determined as 12 mg/kg. Besides, in assay [2] (intraperitoneal administration 30 minutes before ferrous chloride into spinal canal), the “In vivo antioxidation action 50% inhibitory concentration (ID50), Intraperitoneal administration” value is recorded as 4.7 mg/kg. The “In vivo antioxidation action 50% inhibitory concentration (ID50), Oral administration” value in assay [2] (oral administration 30 minutes before ferrous chloride into spinal canal) amounted to 7.4 mg/kg. Besides, the “Ex vivo lipid peroxidation inhibition inhibition ratio (%) Brain” value in assay [3] (brain homogenate) was 77%. Moreover, the “Ex vivo lipid peroxidation inhibition inhibition ratio (%) Heart” value in assay [3] (heart homogenate) was determined as 88%. Moreover, the “Ex vivo lipid peroxidation inhibition inhibition ratio (%) Kidney” value in assay [3] (kidney homogenate) came to 89%. The IC50 in assay [4] came out at 0.25 µM.

For the origin of these results see US7553837B2, “Phenylazole compounds production process and antioxidants” (Nippon Soda Co., Ltd., priority 2003, dated 2009).
